# Patent US20260297060A1, “COMPOUNDS FOR THE DEGRADATION OF MUTANT BRAF” (C4 THERAPEUTICS, INC., priority 2023, published 2026)
# System: A375 human melanoma xenografts
# Experiment: In vivo therapeutic efficacy in A375 human melanoma xenografts (tumor volume, T/C, TGI), Example 14
# Set-up: species or system human tumor in female BALB/c nude mice
# Conditions: for Tumor volume: mean ± SEM; for T/C / TGI: PG-D21
# Protocol: Agents were tested in the A375 human melanoma xenografts. Compound 26 and Compound 141 were administered to BALB/c nude mice bearing A375 tumors from PG-DO and dosed via PO twice a day (BID) or third a day (TIP) or dosed P daily (QD) from PG-D. Dabrafenib was administered to BALB/c nude mice bearing A375 tumors from PG-D1 and dosed via P daily (QD). Compound 26 was dosed at 1.5 mg/kg (QD), 2 mg/kg (TID), 3 mg/kg (BID), 6 mg/kg (QD) and 10 mg/kg (BID) for 21 days. Compound 141 was dosed at 0.75 mg/kg (BID), 1 mg/kg (TID), 1.5 mg/kg (BID), 3 mg/kg (QD) and 5 mg/kg (BID) for 21 days. Dabrafenib was dosed at 100 mg/kg for 21 days. This study was non-GLP.
# One hundred and thirty-eight female BALB/c nude Mus Musculus mice procured from Shanghai Lingchang Biological Science and Technology Co., LTD between the ages of six to eight weeks and with body weight between eighteen and twenty-two grams were used for the study. A spare mouse was also procured.
# The A375 tumor cells were maintained in vitro in DMEM medium supplemented with 10% fetal bovine serum and 1% Penicillin-Streptomycin at 37° C. in an atmosphere of 5% CO2 in air. The tumor cells were routinely sub-cultured twice weekly. The cells growing in an exponential growth phase were harvested and counted for tumor inoculation.
# Each mouse was inoculated subcutaneously at the right flank with A375 cells (5×10^6) in 0.2 mL of PBS supplemented with Matrigel (PBS: Matrigel=1:1) for tumor development. Animals were grouped for efficacy study on day 15 after tumor inoculation when the average tumor volume reached 220 mm^3. The test articles administration and the animal numbers in each group are shown in the above experimental Table 75.
# At the time of routine monitoring, the animals were checked daily for any effects of tumor growth and treatments on normal behavior such as mobility, food and water consumption (by looking only), body weight gain/loss (body weights were measured twice weekly), eye/hair matting and any other abnormal effect as stated in the protocol. Death and observed clinical signs were recorded on the basis of the numbers of animals within each subset.
# Prior to the onset of drug treatment, mice were measured for tumor size in two dimensions using a caliper, and the tumor volume (mm^3) was calculated using formula V=0.5 a×b^2 where a and b are the long and short diameters of the tumor in mm, respectively. Mice were randomized into different treatment groups based on the tumor volume.
# The major endpoint was to see if the tumor growth could be delayed or mice could be cured. The tumor size was then used for calculations of T/C value. The T/C value (in percent) is an indication of antitumor effectiveness; T and C are the mean volumes of the treated and control groups, respectively on specified day.
# TGI was calculated for each group using the formula: TGI (%)=[1−(Ti−T0)/(Ci−C0)]×100; Ti is the average tumor volume of a treatment group on a given day, T0 is the average tumor volume of the treatment group on the day of treatment start, Ci is the average tumor volume of the vehicle control group on the same day with Ti, and C0 is the average tumor volume of the vehicle group on the day of treatment start.
# A one-way ANOVA followed by Dunnett's multiple comparison test was performed to compare tumor volume among vehicle group (Group 1) and treatment groups (Group 2-Group 12). All data were analyzed using GraphPad Prism, ns indicates p>0.05, * indicates p<0.05, ** indicates p<0.01, *** indicates p<0.001 and **** indicates p<0.0001.
# Tumor growth inhibition of Compound 26, Compound 141 and dabrafenib in the treatment of female BALB/c nude mice bearing A375 xenografts was calculated based on tumor volume measured on […]. TGI and T/C were calculated respectively and the data are detailed in Table 82.
# [1] = Compound 26, 1.5 mg/kg p.o. BID × 21 days
smiles,measurement,setting,value
"CCN(C)S(=O)(=O)Nc1ccc(F)c(Oc2ccc3ncn([C@H]4COC5(CCN(C6CC7(C6)CN(c6cc8c(cc6F)c(N6CCC(=O)NC6=O)nn8C)C7)CC5)C4)c(=O)c3c2)c1C#N [Compound 26, (3R)-3-[6-[2-cyano-3-[[ethyl(methyl)sulfamoyl]amino]-6-fluoro-phenoxy]-4-oxo-quinazolin-3-yl]-8-[2-[3-(2,4-dioxohexahydropyrimidin-1-yl)-5-fluoro-1-methyl-indazol-6-yl]-2-azaspiro[3.3]heptan-6-yl]-1-oxa-8-azaspiro[4.5]decane]",Tumor volume,"3 mg/kg p.o. BID x 21 days, day 46 (dosing-free regrowth)",1050 ± 191 mm^3
same,Tumor volume,"3 mg/kg p.o. BID x 21 days, day 49 (dosing-free regrowth)",1328 ± 237 mm^3
same,Tumor volume,"3 mg/kg p.o. BID x 21 days, day 53 (dosing-free regrowth)",1789 ± 341 mm^3
same,Tumor volume,"3 mg/kg p.o. BID x 21 days, day 56 (dosing-free regrowth)",2242 ± 453 mm^3
same,Tumor Size on PG-D21 (Mean ± SEM),3 mg/kg p.o. BID × 21 days,48 ± 9 mm^3
same,T/C,3 mg/kg p.o. BID × 21 days,2.5%
same,TGI,3 mg/kg p.o. BID × 21 days,110.4%
same,Tumor volume,"6 mg/kg p.o. QD x 21 days, day 0",220 ± 16 mm^3
same,Tumor volume,"6 mg/kg p.o. QD x 21 days, day 4",243 ± 16 mm^3
same,Tumor volume,"6 mg/kg p.o. QD x 21 days, day 7",158 ± 10 mm^3
same,Tumor volume,"6 mg/kg p.o. QD x 21 days, day 11",101 ± 7 mm^3
same,Tumor volume,"6 mg/kg p.o. QD x 21 days, day 14",62 ± 4 mm^3
same,Tumor volume,"6 mg/kg p.o. QD x 21 days, day 18",49 ± 7 mm^3
same,Tumor volume,"6 mg/kg p.o. QD x 21 days, day 21",54 ± 13 mm^3
same,Tumor volume,"6 mg/kg p.o. QD x 21 days, day 25 (dosing-free regrowth)",137 ± 74 mm^3
same,Tumor volume,"6 mg/kg p.o. QD x 21 days, day 28 (dosing-free regrowth)",230 ± 109 mm^3
same,Tumor volume,"6 mg/kg p.o. QD x 21 days, day 32 (dosing-free regrowth)",335 ± 129 mm^3
same,Tumor volume,"6 mg/kg p.o. QD x 21 days, day 35 (dosing-free regrowth)",478 ± 161 mm^3
same,Tumor volume,"6 mg/kg p.o. QD x 21 days, day 39 (dosing-free regrowth)",751 ± 185 mm^3
same,Tumor volume,"6 mg/kg p.o. QD x 21 days, day 42 (dosing-free regrowth)",894 ± 208 mm^3
same,Tumor volume,"6 mg/kg p.o. QD x 21 days, day 46 (dosing-free regrowth)",1363 ± 315 mm^3
same,Tumor volume,"6 mg/kg p.o. QD x 21 days, day 49 (dosing-free regrowth)",1802 ± 396 mm^3
same,Tumor volume,"6 mg/kg p.o. QD x 21 days, day 53 (dosing-free regrowth)",1863 ± 377 mm^3
same,Tumor volume,"6 mg/kg p.o. QD x 21 days, day 56 (dosing-free regrowth)",2305 ± 461 mm^3
same,Tumor Size on PG-D21 (Mean ± SEM),6 mg/kg p.o. QD × 21 days,54 ± 13 mm^3
same,T/C,6 mg/kg p.o. QD × 21 days,2.9%
same,TGI,6 mg/kg p.o. QD × 21 days,110.0%
same,Tumor volume,"10 mg/kg p.o. BID x 21 days, day 0",220 ± 15 mm^3
same,Tumor volume,"10 mg/kg p.o. BID x 21 days, day 4",126 ± 10 mm^3
same,Tumor volume,"10 mg/kg p.o. BID x 21 days, day 7",65 ± 6 mm^3
same,Tumor volume,"10 mg/kg p.o. BID x 21 days, day 11",42 ± 4 mm^3
same,Tumor volume,"10 mg/kg p.o. BID x 21 days, day 14",26 ± 3 mm^3
same,Tumor volume,"10 mg/kg p.o. BID x 21 days, day 18",20 ± 2 mm^3
same,Tumor volume,"10 mg/kg p.o. BID x 21 days, day 21",17 ± 2 mm^3
same,Tumor volume,"10 mg/kg p.o. BID x 21 days, day 25 (dosing-free regrowth)",17 ± 2 mm^3
same,Tumor volume,"10 mg/kg p.o. BID x 21 days, day 28 (dosing-free regrowth)",29 ± 3 mm^3
same,Tumor volume,"10 mg/kg p.o. BID x 21 days, day 32 (dosing-free regrowth)",62 ± 16 mm^3
same,Tumor volume,"10 mg/kg p.o. BID x 21 days, day 35 (dosing-free regrowth)",112 ± 34 mm^3
same,Tumor volume,"10 mg/kg p.o. BID x 21 days, day 39 (dosing-free regrowth)",253 ± 70 mm^3
same,Tumor volume,"10 mg/kg p.o. BID x 21 days, day 42 (dosing-free regrowth)",357 ± 91 mm^3
same,Tumor volume,"10 mg/kg p.o. BID x 21 days, day 46 (dosing-free regrowth)",550 ± 131 mm^3
same,Tumor volume,"10 mg/kg p.o. BID x 21 days, day 49 (dosing-free regrowth)",711 ± 168 mm^3
same,Tumor volume,"10 mg/kg p.o. BID x 21 days, day 53 (dosing-free regrowth)",1021 ± 215 mm^3
same,Tumor volume,"10 mg/kg p.o. BID x 21 days, day 56 (dosing-free regrowth)",1128 ± 250 mm^3
same,Tumor Size on PG-D21 (Mean ± SEM),10 mg/kg p.o. BID × 21 days,17 ± 2 mm^3
same,T/C,"10 mg/kg, p.o., BID × 21 days",0.9%
same,TGI,"10 mg/kg, p.o., BID × 21 days",112.2%
same,minimal effective dose,"A-375, po, tumor bearing mouse model, BID, read-out: maximally efficacious minimal dose (MED)",3 mg/kg
same,Tumor Size on PG-D21 (Mean ± SEM),[1],400 ± 70 mm^3
same,T/C,[1],21.2%
same,TGI,[1],89.2%
